How the values were obtained:
[1] = Photostability at solid state (chemical purity by HPLC after illumination); format: physicochemical; conditions: solid-state, forced illumination; for degradation (in words): up to 171 hours
Procedure: (§1) The method for determining purity by HPLC—used throughout these examples—used the following parameters:
(§2) The photostability of novel crystalline forms of QTX125 was assessed at solid state and in solution. Where ‘forced illumination’ conditions were used, samples were illuminated at 12 Klux/hour and 2.8 UV W/m^2/hour. Samples were stored at a temperature of 30° C. Following incubation, the chemical purity of QTX125 was measured by HPLC.
(§3) The following index is provided to aid navigation of the data presented in Tables 3.1.1 to 3.3.6: • 3.1.x—Assessment of the photostability of QTX125 Form 2. • 3.2.x—Assessment of the photostability of amorphous QTX125. • 3.3.x—Assessment of the photostability of the QTX125 1:2 L-Lysine adduct. • 3.x.1—Samples (at solid state) stored in unsealed clear glass bottles, subject to forced illumination. • 3.x.2—Samples (at solid state) sealed under nitrogen in clear glass bottles, subject to forced illumination. • 3.x.3—Samples (at solid state) sealed under nitrogen in amber glass bottles, illuminated under ambient laboratory conditions • 3.x.4—Samples (at solid state) sealed under nitrogen in amber glass bottles, subject to forced illumination. • 3.x.5—Samples (in solution) sealed under nitrogen in amber glass bottles, illuminated under ambient laboratory conditions. • 3.x.6—Samples (in solution) sealed under nitrogen in amber glass bottles, subject to forced illumination.

[2] = Photostability in solution (THF and water), HPLC; format: physicochemical; conditions: in solution (THF and water), sealed under nitrogen in amber glass bottles; for degradation (in words): up to 171 hours
Procedure: as §1, §2, §3

[3] = sealed under nitrogen in clear glass bottles
[4] = sealed under nitrogen in clear glass bottles, 0 hours
[5] = sealed under nitrogen in clear glass bottles, 3 hours
[6] = sealed under nitrogen in clear glass bottles, 26 hours
[7] = sealed under nitrogen in clear glass bottles, 74 hours
[8] = sealed under nitrogen in clear glass bottles, 171 hours
[9] = unsealed clear glass bottles, 0 hours
[10] = unsealed clear glass bottles, 3 hours
[11] = unsealed clear glass bottles, 26 hours
[12] = unsealed clear glass bottles, 74 hours
[13] = unsealed clear glass bottles, 171 hours
[14] = ambient laboratory conditions, 0 hours
[15] = ambient laboratory conditions, 3 hours
[16] = ambient laboratory conditions, 26 hours
[17] = ambient laboratory conditions, 171 hours
[18] = ambient laboratory conditions, 171 hours, listed as Form 2
[19] = forced illumination, 171 hours, listed as Form 2

SMILES: O=C(NO)c1ccc(CNC(=O)c2[nH]c(-c3ccc(O)cc3)cc2-c2ccoc2)cc1 [QTX125 Form 2, 3-(3-Furyl)-N-{4-[(hydroxyamino)carbonyl]benzyl}-5-(4-hydroxyphenyl)-1H-pyrrole-2-carboxamide]
- colour change of the solid material [1, 3]: change in colour from off white to dark green
- HPLC peak area, QTX125 RRT 1.00 [1, 4]: 98.21%
- HPLC peak area, RRT 1.04 [1, 4]: 0.98%
- HPLC peak area, QTX125 RRT 1.00 [1, 5]: 97.78%
- HPLC peak area, RRT 1.04 [1, 5]: 1.29%
- HPLC peak area, QTX125 RRT 1.00 [1, 6]: 96.16%
- HPLC peak area, RRT 1.04 [1, 6]: 2.16%
- HPLC peak area, QTX125 RRT 1.00 [1, 7]: 84.98%
- HPLC peak area, RRT 1.04 [1, 7]: 5.99%
- HPLC peak area, RRT 1.08 [1, 7]: 1.24%
- HPLC peak area, RRT 1.11 [1, 7]: 0.52%
- HPLC peak area, RRT 1.20 [1, 7]: 0.66%
- HPLC peak area, QTX125 RRT 1.00 [1, 8]: 82.33%
- HPLC peak area, RRT 1.04 [1, 8]: 9.95%
- HPLC peak area, RRT 1.08 [1, 8]: 0.41%
- HPLC peak area, RRT 1.11 [1, 8]: 0.86%
- HPLC peak area, RRT 1.20 [1, 8]: 0.22%
- degradation (in words) [1, 3]: degrade to two principal components
- colour change of the solid material ([1]; unsealed clear glass bottles): change in colour from off white to dark green
- HPLC peak area, QTX125 RRT 1.00 [1, 9]: 98.21%
- HPLC peak area, RRT 1.04 [1, 9]: 0.98%
- HPLC peak area, QTX125 RRT 1.00 [1, 10]: 97.68%
- HPLC peak area, RRT 1.04 [1, 10]: 1.38%
- HPLC peak area, QTX125 RRT 1.00 [1, 11]: 95.59%
- HPLC peak area, RRT 1.04 [1, 11]: 2.38%
- HPLC peak area, QTX125 RRT 1.00 [1, 12]: 90.53%
- HPLC peak area, RRT 1.04 [1, 12]: 4.90%
- HPLC peak area, QTX125 RRT 1.00 [1, 13]: 83.78%
- HPLC peak area, RRT 1.04 [1, 13]: 9.15%
- HPLC peak area, RRT 1.12 [1, 13]: 0.52%
- degradation (in words) ([1]; unsealed clear glass bottles): degrade to two principal components
- HPLC peak area, QTX125 RRT 1.00 [2, 14]: 98.21%
- HPLC peak area, RRT 1.04 [2, 14]: 0.98%
- HPLC peak area, QTX125 RRT 1.00 [2, 15]: 97.50%
- HPLC peak area, RRT 1.04 [2, 15]: 1.06%
- HPLC peak area, QTX125 RRT 1.00 [2, 16]: 97.65%
- HPLC peak area, RRT 1.04 [2, 16]: 0.93%
- HPLC peak area, QTX125 RRT 1.00 [2, 17]: 91.10%
- HPLC peak area, RRT 1.04 [2, 17]: 4.81%
- HPLC peak area, RRT 1.12 [2, 17]: 0.83%
- HPLC peak area, QTX125 RRT 1.00 [2, 18]: 91.10%
- HPLC peak area, RRT 1.04 [2, 18]: 4.81%
- HPLC peak area, RRT 1.12 [2, 18]: 0.83%
- degradation (in words) ([2]; ambient laboratory conditions): degrade
- HPLC peak area, QTX125 RRT 1.00 ([2]; forced illumination, 0 hours): 98.21%
- HPLC peak area, RRT 1.04 ([2]; forced illumination, 0 hours): 0.98%
- HPLC peak area, QTX125 RRT 1.00 ([2]; forced illumination, 3 hours): 97.30%
- HPLC peak area, RRT 1.04 ([2]; forced illumination, 3 hours): 1.07%
- HPLC peak area, QTX125 RRT 1.00 ([2]; forced illumination, 26 hours): 96.27%
- HPLC peak area, RRT 1.04 ([2]; forced illumination, 26 hours): 1.09%
- HPLC peak area, QTX125 RRT 1.00 ([2]; forced illumination, 171 hours): 81.65%
- HPLC peak area, RRT 1.04 ([2]; forced illumination, 171 hours): 3.60%
- HPLC peak area, RRT 1.12 ([2]; forced illumination, 171 hours): 0.86%
- HPLC peak area, QTX125 RRT 1.00 [2, 19]: 81.65%
- HPLC peak area, RRT 1.04 [2, 19]: 3.60%
- HPLC peak area, RRT 1.12 [2, 19]: 0.86%
- degradation (in words) ([2]; forced illumination): degrade
